From patent US20240307353A1, “JAK1 PATHWAY INHIBITORS FOR THE TREATMENT OF ASTHMA” (Incyte Corporation, priority 2023, published 2024)
pIC50: −log10 of the molar value.

What was measured:
[1] = molecular target: human JAK1 (a.a. 837-1142) (Homo sapiens, UniProt P23458); assay: In vitro JAK kinase assay (HTRF), JAK1; format: biochemical; details: 1 mM ATP
Protocol: (§1) The catalytic activity of JAK1, JAK2 or JAK3 was assayed by measuring the phosphorylation of a biotinylated peptide. The phosphorylated peptide was detected by homogenous time resolved fluorescence (HTRF). […] Reactions were carried out at room temperature for 1 hour and then stopped with 20 μL 45 mM EDTA, 300 nM SA-APC, 6 nM Eu-Py20 in assay buffer (Perkin Elmer, Boston, MA). Binding to the Europium labeled antibody took place for 40 minutes and HTRF signal was measured on a Fusion plate reader (Perkin Elmer, Boston, MA).

[2] = molecular target: JAK2 (a.a. 828-1132) (Homo sapiens (Human), UniProt O60674); assay: In vitro JAK kinase assay (HTRF), JAK2 versus JAK1; format: biochemical; details: IC50 ratio, 1 mM ATP
Chain of JAK2 (a.a. 828-1132) (O60674 828-1132): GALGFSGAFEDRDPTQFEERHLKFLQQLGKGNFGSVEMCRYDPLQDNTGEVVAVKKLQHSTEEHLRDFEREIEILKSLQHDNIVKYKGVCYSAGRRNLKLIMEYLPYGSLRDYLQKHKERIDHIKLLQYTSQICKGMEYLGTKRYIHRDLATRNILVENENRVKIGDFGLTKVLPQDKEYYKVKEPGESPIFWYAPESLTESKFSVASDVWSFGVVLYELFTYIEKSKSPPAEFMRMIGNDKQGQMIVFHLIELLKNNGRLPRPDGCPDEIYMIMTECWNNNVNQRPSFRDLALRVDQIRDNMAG
Protocol: as §1

| pIC50 [1] | JAK2/JAK1 [2] | SMILES |
| --- | --- | --- |
| > 8.00 | >10 | N#CC[C@]1(n2cc(-c3ncnc4[nH]ccc34)cn2)C[C@H](N2CCC(Oc3cc(CN4CC(O)C4)cc(C(F)(F)F)n3)CC2)C1 [Compound 11, {trans-3-(4-{[4-[(3-hydroxyazetidin-1-yl)methyl]-6-(trifluoromethyl)pyridin-2-yl]oxy}piperidin-1-yl)-1-[4-(7H-pyrrolo[2,3-d]pyrimidin-4-yl)-1H-pyrazol-1-yl]cyclobutyl}acetonitrile] |
| > 8.00 | >10 | N#CC[C@]1(n2cc(-c3ncnc4[nH]ccc34)cn2)C[C@H](N2CCC(Oc3cc(CN4CCC[C@H]4CO)cc(C(F)(F)F)n3)CC2)C1 [Compound 12, {trans-3-(4-{[4-{[(2S)-2-(hydroxymethyl)pyrrolidin-1-yl]methyl}-6-(trifluoromethyl)pyridin-2-yl]oxy}piperidin-1-yl)-1-[4-(7H-pyrrolo[2,3-d]pyrimidin-4-yl)-1H-pyrazol-1-yl]cyclobutyl}acetonitrile] |
| > 8.00 | >10 | N#CC[C@]1(n2cc(-c3ncnc4[nH]ccc34)cn2)C[C@H](N2CCC(Oc3cc(CN4CCC[C@@H]4CO)cc(C(F)(F)F)n3)CC2)C1 [Compound 13, {trans-3-(4-{[4-{[(2R)-2-(hydroxymethyl)pyrrolidin-1-yl]methyl}-6-(trifluoromethyl)pyridin-2-yl]oxy}piperidin-1-yl)-1-[4-(7H-pyrrolo[2,3-d]pyrimidin-4-yl)-1H-pyrazol-1-yl]cyclobutyl}acetonitrile] |
| > 8.00 | >10 | C[C@H](NC(=O)c1cc(F)c(N2CC(CC#N)(n3cc(-c4ncnc5[nH]ccc45)cn3)C2)cc1F)C(F)(F)F [Compound 16, 4-{3-(cyanomethyl)-3-[4-(7H-pyrrolo[2,3-d]pyrimidin-4-yl)-1H-pyrazol-1-yl]azetidin-1-yl}-2,5-difluoro-N-[(1S)-2,2,2-trifluoro-1-methylethyl]benzamide] |
| > 8.00 | >10 | N#CCC1(n2cc(-c3ncnc4[nH]ccc34)cn2)CN([C@H]2CC[C@@H](Oc3cc(CCO)nc(C(F)(F)F)n3)CC2)C1 [Compound 18, {1-(cis-4-{[6-(2-hydroxyethyl)-2-(trifluoromethyl)pyrimidin-4-yl]oxy}cyclohexyl)-3-[4-(7H-pyrrolo[2,3-d]pyrimidin-4-yl)-1H-pyrazol-1-yl]azetidin-3-yl}acetonitrile] |
| > 8.00 | >10 | CCNCc1cc(O[C@H]2CC[C@@H](N3CC(CC#N)(n4cc(-c5ncnc6[nH]ccc56)cn4)C3)CC2)nc(C(F)(F)F)c1 [Compound 19, {1-(cis-4-{[4-[(ethylamino)methyl]-6-(trifluoromethyl)pyridin-2-yl]oxy}cyclohexyl)-3-[4-(7H-pyrrolo[2,3-d]pyrimidin-4-yl)-1H-pyrazol-1-yl]azetidin-3-yl}acetonitrile] |
| > 8.00 | >10 | CC(C)(O)c1cc(O[C@H]2CC[C@@H](N3CC(CC#N)(n4cc(-c5ncnc6[nH]ccc56)cn4)C3)CC2)nc(C(F)(F)F)c1 [Compound 20, {1-(cis-4-{[4-(1-hydroxy-1-methylethyl)-6-(trifluoromethyl)pyridin-2-yl]oxy}cyclohexyl)-3-[4-(7H-pyrrolo[2,3-d]pyrimidin-4-yl)-1H-pyrazol-1-yl]azetidin-3-yl}acetonitrile] |
| > 8.00 | >10 | N#CCC1(n2cc(-c3ncnc4[nH]ccc34)cn2)CN([C@H]2CC[C@@H](Oc3cc(CN4CC[C@@H](O)C4)cc(C(F)(F)F)n3)CC2)C1 [Compound 21, {1-(cis-4-{[4-{[(3R)-3-hydroxypyrrolidin-1-yl]methyl}-6-(trifluoromethyl)pyridin-2-yl]oxy}cyclohexyl)-3-[4-(7H-pyrrolo[2,3-d]pyrimidin-4-yl)-1H-pyrazol-1-yl]azetidin-3-yl}acetonitrile] |
| > 8.00 | >10 | N#CCC1(n2cc(-c3ncnc4[nH]ccc34)cn2)CN([C@H]2CC[C@@H](Oc3cc(CN4CC[C@H](O)C4)cc(C(F)(F)F)n3)CC2)C1 [Compound 22, {1-(cis-4-{[4-{[(3S)-3-hydroxypyrrolidin-1-yl]methyl}-6-(trifluoromethyl)pyridin-2-yl]oxy}cyclohexyl)-3-[4-(7H-pyrrolo[2,3-d]pyrimidin-4-yl)-1H-pyrazol-1-yl]azetidin-3-yl}acetonitrile] |
| > 8.00 | >10 | C[C@@H](CO)NCc1cc(OC2CCN([C@H]3C[C@](CC#N)(n4cc(-c5ncnc6[nH]ccc56)cn4)C3)CC2)nc(C(F)(F)F)c1 [Compound 23, {trans-3-(4-{[4-({[(1S)-2-hydroxy-1-methylethyl]amino}methyl)-6-(trifluoromethyl)pyridin-2-yl]oxy}piperidin-1-yl)-1-[4-(7H-pyrrolo[2,3-d]pyrimidin-4-yl)-1H-pyrazol-1-yl]cyclobutyl}acetonitrile] |
| > 8.00 | >10 | C[C@@H](O)CNCc1cc(OC2CCN([C@H]3C[C@](CC#N)(n4cc(-c5ncnc6[nH]ccc56)cn4)C3)CC2)nc(C(F)(F)F)c1 [Compound 24, {trans-3-(4-{[4-({[(2R)-2-hydroxypropyl]amino}methyl)-6-(trifluoromethyl)pyridin-2-yl]oxy}piperidin-1-yl)-1-[4-(7H-pyrrolo[2,3-d]pyrimidin-4-yl)-1H-pyrazol-1-yl]cyclobutyl}acetonitrile] |
| > 8.00 | >10 | C[C@H](O)CNCc1cc(OC2CCN([C@H]3C[C@](CC#N)(n4cc(-c5ncnc6[nH]ccc56)cn4)C3)CC2)nc(C(F)(F)F)c1 [Compound 25, {trans-3-(4-{[4-({[(2S)-2-hydroxypropyl]amino}methyl)-6-(trifluoromethyl)pyridin-2-yl]oxy}piperidin-1-yl)-1-[4-(7H-pyrrolo[2,3-d]pyrimidin-4-yl)-1H-pyrazol-1-yl]cyclobutyl}acetonitrile] |
| > 8.00 | >10 | N#CC[C@]1(n2cc(-c3ncnc4[nH]ccc34)cn2)C[C@H](N2CCC(Oc3cc(CCO)cc(C(F)(F)F)n3)CC2)C1 [Compound 26, {trans-3-(4-{[4-(2-hydroxyethyl)-6-(trifluoromethyl)pyridin-2-yl]oxy}piperidin-1-yl)-1-[4-(7H-pyrrolo[2,3-d]pyrimidin-4-yl)-1H-pyrazol-1-yl]cyclobutyl}acetonitrile] |

Continued, compound first:

| SMILES | pIC50 [1] | JAK2/JAK1 [2] |
| --- | --- | --- |
| N#CCC(C1CCN(c2cccc(Cl)n2)C1)n1cc(-c2ncnc3[nH]ccc23)cn1 (single isomer, unassigned) [Compound 6, 3-[1-(6-chloropyridin-2-yl)pyrrolidin-3-yl]-3-[4-(7H-pyrrolo[2,3-d]pyrimidin-4-yl)-1H-pyrazol-1-yl]propanenitrile] | > 8.00 | >10 |
| N#CCC1(n2cc(-c3ncnc4[nH]ccc34)cn2)CN(C2CCN(C(=O)Nc3ccc(F)cc3C(F)(F)F)CC2)C1 [Compound 2, 4-{3-(Cyanomethyl)-3-[4-(7H-pyrrolo[2,3-d]pyrimidin-4-yl)-1H-pyrazol-1-yl]azetidin-1-yl}-N-[4-fluoro-2-(trifluoromethyl)phenyl]piperidine-1-carboxamide] | > 8.00 | >10 |
| N#CCC1(n2cc(-c3ncnc4[nH]ccc34)cn2)CN(C2CCN(C(=O)c3ccnc(C(F)(F)F)n3)CC2)C1 [Compound 3, [3-[4-(7H-pyrrolo[2,3-d]pyrimidin-4-yl)-1H-pyrazol-1-yl]-1-(1-{[2-(trifluoromethyl)pyrimidin-4-yl]carbonyl}piperidin-4-yl)azetidin-3-yl]acetonitrile] | > 8.00 | >10 |
| N#CCC1(n2cc(-c3ncnc4[nH]ccc34)cn2)CN(C2CCN(C(=O)c3ccnc(C(F)(F)F)c3F)CC2)C1 [Compound 4, {1-{1-[3-Fluoro-2-(trifluoromethyl)isonicotinoyl]piperidin-4-yl}-3-[4-(7H-pyrrolo[2,3-d]pyrimidin-4-yl)-1H-pyrazol-1-yl]azetidin-3-yl}acetonitrile] | > 8.00 | >10 |
| C[C@@H](O)c1nc2cnc3ccsc3c2n1[C@H]1CC[C@H](CC#N)OC1 [Compound 5, ((2R,5S)-5-{2-[(1R)-1-hydroxyethyl]-1H-imidazo[4,5-d]thieno[3,2-b]pyridin-1-yl}tetrahydro-2H-pyran-2-yl)acetonitrile] | > 7.00 | >10 |
| N#CCC(C1CCN(c2nc3cccnc3o2)C1)n1cc(-c2ncnc3[nH]ccc23)cn1 (centres unmarked) [Compound 7, 3-(1-[1,3]oxazolo[5,4-b]pyridin-2-ylpyrrolidin-3-yl)-3-[4-(7H-pyrrolo[2,3-d]pyrimidin-4-yl)-1H-pyrazol-1-yl]propanenitrile] | > 8.00 | >10 |
| N#CCC(CN1CCN(C(=O)c2ccc(C#N)cc2F)CC1)n1cc(-c2ncnc3[nH]ccc23)cn1 (centres unmarked) [Compound 8, 4-[(4-{3-cyano-2-[4-(7H-pyrrolo[2,3-d]pyrimidin-4-yl)-1H-pyrazol-1-yl]propyl}piperazin-1-yl)carbonyl]-3-fluorobenzonitrile] | > 8.00 | >10 |
| N#CCC(CN1CCN(C(=O)c2ccc(C#N)cc2F)CC1)n1ccc(-c2ncnc3[nH]ccc23)c1 (centres unmarked) [Compound 9, 4-[(4-{3-cyano-2-[3-(7H-pyrrolo[2,3-d]pyrimidin-4-yl)-1H-pyrrol-1-yl]propyl}piperazin-1-yl)carbonyl]-3-fluorobenzonitrile] | > 8.00 | >10 |
| N#CC[C@]1(n2cc(-c3ncnc4[nH]ccc34)cn2)C[C@H](N2CCN(C(=O)c3ccnc(C(F)(F)F)n3)CC2)C1 [Compound 10, [trans-1-[4-(7H-pyrrolo[2,3-d]pyrimidin-4-yl)-1H-pyrazol-1-yl]-3-(4-{[2-(trifluoromethyl)pyrimidin-4-yl]carbonyl}piperazin-1-yl)cyclobutyl]acetonitrile] | > 8.00 | >10 |
